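48-hour exposure; five concentrations; linearly interpolated endpoints. Abbreviation: GI50, concentration required for 50% inhibition of growth. The concentration for full growth arrest is given as TGI.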
Key:
Assay in all cases: NCI-60 cell line screen, 48 h
A498 renal = system: A498 renal
M14 melanoma = system: M14 melanoma
NCI-H226 lung = system: NCI-H226 lung
NCI-H522 lung = system: NCI-H522 lung
SF-268 CNS = system: SF-268 CNS

Compound | TGI (A498 renal) [µM] | TGI (M14 melanoma) [µM] | TGI (NCI-H226 lung) [µM] | TGI (NCI-H522 lung) [µM] | TGI (SF-268 CNS) [µM] | GI50 (SF-268 CNS) [µM]
CN(/N=C/c1ccccn1)C1=NCCN1 | > 100 | > 100 | > 100 | > 100 | > 100 | –
CC[C@@H]1CC[C@@H]2[C@H](CC[C@]3(C)[C@@H](O[N+](=O)[O-])CC[C@@H]23)[C@H]1C(C)=O | 95.9 | > 100 | > 100 | 80.9 | > 100 | –
CCc1nc(N)nc(N)c1-c1ccc(N2CCOCC2)c(N=[N+]=[N-])c1 | > 100 | > 100 | > 100 | 37.9 | > 100 | –
CO/C(N)=C(\C#N)N=Cc1ccsc1 | > 100 | > 100 | > 100 | 79.6 | > 100 | –
CC1(c2ccc(Cl)cc2)C=C(c2ccc(Cl)cc2)C(C#N)=C(C(C#N)C#N)N1 (stereo not drawn) | 33.7 | 36 | 98.2 | – | 23.9 | –
COc1ccc(/C=C2\C[C@H]3[C@@H]4CC=C5C[C@@H](O)CC[C@]5(C)[C@H]4CC[C@]3(C)\C2=N\O)cc1 | 71.7 | 40.3 | 94.1 | 50 | 46.2 | –
COC(=O)/C=C1\C(CO[Si](C)(C)C(C)(C)C)OC(n2ccc(=O)[nH]c2=O)C1O (stereo not drawn) | 41.6 | 49.2 | 19.5 | – | 2.39 | –
CN(Cc1cccc2ccsc12)/N=C\c1ccc(Cl)cc1 | > 100 | > 100 | > 100 | > 100 | > 100 | –
Cc1cn([C@H]2C[C@@H](N3C(=O)c4ccccc4C3=O)[C@@H](CO[Si](C)(C)C(C)(C)C)O2)c(=O)[nH]c1=O | > 100 | > 100 | > 100 | > 100 | > 100 | –
NC1=C(c2nc(-c3ccccc3)cs2)C(c2ccco2)c2c(c3ccccc3oc2=O)O1 (stereo not drawn) | > 100 | > 100 | > 100 | > 100 | > 100 | –
O=C(/C=C/c1ccccc1)CCN1CCCCC1 | > 100 | 32.4 | > 100 | 47.4 | > 100 | –
CC(=O)n1c2ccc(Br)cc2c2nc3ccccc3nc21 | – | > 100 | > 100 | > 100 | > 100 | –
Nc1nccc(NCC2(CO)CC(CCc3ccccc3)C2)n1 (stereo not drawn) | 29.3 | – | 51.7 | 26 | – | –
CCOc1ccc(NC(=O)C(=O)C(/C(=N/N)C(=O)OC)c2nc3ccc([N+](=O)[O-])cc3[nH]c2=O)cc1 (stereo not drawn) | > 100 | > 100 | > 100 | > 100 | > 100 | –
COC(=O)c1c(C)cccc1C1CN=NC12Cc1cc(C)c(C)cc1C2=O (stereo not drawn) | – | > 100 | > 100 | 54.6 | > 100 | –
COC(=O)C1(CCCCl)CCCN1C(=O)OC(C)(C)C (stereo not drawn) | – | – | > 100 | – | > 100 | –
C#CCN(C(=O)C(F)(F)F)C(/C=C\C(=O)OC)(C(=O)OCC)C(=O)OCC | > 100 | > 100 | > 100 | > 100 | > 100 | –
Cc1nn(C(=O)Cc2ccccc2)c2c1C(c1ccc(/C=C/c3ccccc3)cc1)SC(N)=N2 (stereo not drawn) | > 100 | > 100 | > 100 | > 100 | > 100 | –
O=C1CSC(c2cc3cc(Br)ccc3nc2Cl)N1c1ccc(Cl)cc1 (stereo not drawn) | > 100 | 84.9 | > 100 | 57.3 | > 100 | –
O=C(Nc1ccc(Cl)cc1Cl)C1C(=O)OC2(CCCCC2)OC1=O | 31.5 | 30.1 | 29.3 | 52.5 | 50.5 | –
C(=NC12CC3CC(CC(C3)C1)C2)C1CCCCC1 | > 100 | > 100 | > 100 | > 100 | > 100 | –
Nc1ccc2c(=S)c3ccccc3[nH]c2c1 | > 100 | > 83.3 | > 100 | 79.2 | > 100 | –
O=C(O)c1ccccc1/C=C1\Cc2cc3c(cc2C1=O)CCC3 | 80.1 | 53.7 | 80.8 | 45.6 | > 100 | –

Compound | TGI (A498 renal) [µM] | TGI (M14 melanoma) [µM] | TGI (NCI-H226 lung) [µM] | TGI (NCI-H522 lung) [µM] | TGI (SF-268 CNS) [µM] | GI50 (SF-268 CNS) [µM]
O[C@@H]1[C@H](OC2c3ccccc3-c3ccccc32)[C@H](OCc2ccccc2)[C@@H]2OC[C@H]1O2 | > 100 | > 100 | > 100 | > 100 | > 100 | –
CCN(CC)/[N+]([O-])=N/OS(=O)(=O)N(C)C | > 100 | > 100 | > 100 | > 100 | > 100 | –
Cc1cnc2[nH]c(-c3cccc4ccccc34)cc(=O)c2c1 | 0.00286 | > 100 | 59.9 | 0.00072 | > 100 | 6.51
CC(C)(C)OC(=O)/N=C/c1c(O)c2ccccc2oc1=O | 78.5 | > 100 | 64.7 | 0.0208 | > 100 | –
Cc1[nH]c(=O)c2oc3cc4ccccc4cc3c2c1C(=O)O | – | > 10 | > 10 | > 10 | > 10 | –
O=C(OC1OC2COC(=O)c3cc(O)c(O)c(O)c3-c3c(cc(O)c(O)c3O)C(=O)OC3C2OC(=O)[C@@]24CC(=O)[C@@](O)(OC25C(=O)O[C@H]2[C@@H](O)CO[C@@]25O)C2(O)Oc5c(O)c(O)cc(c5C24)C(=O)OC13)c1cc(O)c(O)c(O)c1 (stereo partly drawn) | > 100 | > 100 | > 100 | 88 | > 100 | –
N#CCC(=O)N/N=C\C(O)C(O)C(O)C(O)CO (stereo not drawn) | > 100 | > 100 | > 100 | > 100 | > 100 | –
CCOC(=O)c1cn(-c2ccc([N+](=O)[O-])cc2)c(=S)n2c1nc1ccccc12 | 87.7 | > 100 | > 100 | – | – | –
c1ccc(C(NC2=NCCO2)C2CC2)cc1 (stereo not drawn) | > 100 | > 100 | > 100 | > 100 | > 100 | –
COC(=O)/C(=N\N)C(C(=O)C(=O)Nc1cc(Cl)ccc1Cl)c1nc2ccc([N+](=O)[O-])cc2[nH]c1=O (stereo not drawn) | > 100 | > 100 | > 100 | > 100 | > 100 | –
O=c1oc2ccccc2c(-c2ccc(O)cc2)c1Oc1ccccc1 | 23.5 | 32.1 | > 75.7 | – | 25.6 | –
O=C(O)CCC(NC(=O)c1ccc(Nc2nc3ccc(C(F)(F)F)cc3nc2C(=O)O)cc1)C(=O)O (stereo not drawn) | > 100 | > 100 | > 100 | > 100 | > 100 | –
Cc1cccc(C)c1NC(=O)C(=O)CC(=O)c1sc(Nc2c(C)cccc2C)nc1C | > 100 | > 100 | > 100 | > 100 | > 100 | –
Cc1nc2ccc(S(=O)(=O)O)cc2c(=O)n1-c1ccc(C(=O)NN2C(=O)C(Cl)C2c2cccs2)cc1 (stereo not drawn) | > 100 | 41.4 | > 100 | > 100 | 44.3 | –
CCOC(=O)c1nc2ccc(C(F)(F)F)cc2nc1Oc1ccc(OC)cc1 | > 100 | > 100 | > 100 | – | > 100 | –
C=C1CC[C@@H]2[C@](C)(COC(=O)CCC(=O)OC)CCC[C@@]2(C)[C@@H]1CCC1=CC(=O)OC1 | > 100 | > 100 | > 100 | > 100 | – | –
CC1=C(C(=O)NNC(=O)C[N+](C)(C)C)CC(C(=O)NNC(=O)C[N+](C)(C)C)=C(C)N1 | > 100 | > 100 | > 100 | > 100 | > 100 | –
NC(Cc1cc(I)c(Oc2ccc(O)c(I)c2)c(I)c1)C(=O)O (stereo not drawn) | 92.6 | > 100 | > 100 | > 100 | > 100 | –
CC1OC(OC2C(OC(=O)[C@]34CCC(C)(C)C[C@H]3C3=CC[C@@H]5[C@@]6(C)CC[C@H](OC7OC(CO)C(O)C(O)C7OC7OC(CO)C(O)C(O)C7O)C(C)(C)[C@@H]6CC[C@@]5(C)[C@]3(C)CC4)OCC(O)C2O)C(O)C(O)C1OC1OCC(O)C(O)C1O (stereo partly drawn) | 6.06 | 16.7 | 26.2 | 12.1 | 21.4 | –
CC(=O)Nc1nc2c(=O)c3ccccc3sc2s1 | > 100 | > 100 | > 100 | – | > 100 | –
Cc1ccc2c(c1C)CC1(Cc3ccc(C)c(C)c3C1=O)C2=O (stereo not drawn) | – | > 100 | > 100 | > 100 | > 100 | –
COC(=O)C(=O)C(C(=O)C(=O)Nc1cccc(OC)c1)c1nc2ccc(Cl)cc2[nH]c1=O (stereo not drawn) | > 100 | > 100 | > 100 | > 100 | > 100 | –
CCN(C(=O)N[C@@H](CC(C)C)C(=O)NCC(=O)OC)c1ccccc1 | – | > 100 | > 100 | > 100 | – | –

Compound | TGI (A498 renal) [µM] | TGI (M14 melanoma) [µM] | TGI (NCI-H226 lung) [µM] | TGI (NCI-H522 lung) [µM] | TGI (SF-268 CNS) [µM] | GI50 (SF-268 CNS) [µM]
COc1cc(Nc2cc(Cl)cc(Cl)c2)nc(N)n1 | 39.9 | 42.1 | 42.5 | 35.9 | 41.3 | –
Fc1ccc2c(c1)SC1=Nc3sc4cc(F)ccc4[n+]3CN12 | 33.5 | > 100 | 56.8 | 35.2 | > 100 | –
NCCc1ccc(S(=O)(=O)O)cc1[N+](=O)[O-] | > 100 | > 100 | > 100 | > 100 | > 100 | –
COc1ccc(NC(=S)c2ccc([N+](=O)[O-])o2)cc1 | 29.1 | 7.28 | 8.75 | 2.92 | 9.76 | –
C=CCN(c1cc(O)c2c(c(C)cn2S(=O)(=O)c2ccccc2)c1[N+](=O)[O-])S(C)(=O)=O | > 100 | > 100 | > 100 | > 100 | > 100 | –
N#CCc1nc(-c2cc3ccccc3oc2=O)cs1 | – | > 100 | > 100 | > 100 | > 100 | –
C[C@H]1CCC/C=C/[C@@H]2C[C@H](OC(=O)CN(C)C)C[C@H]2[C@H](O)/C=C/C(=O)O1 | > 32.3 | > 19.9 | 0.133 | 1.39 | > 100 | –
S=c1[nH]nc(Cn2c3ccc(Br)cc3c3nc4ccccc4nc32)o1 | > 100 | > 100 | > 100 | 69.6 | > 100 | –
Cc1nc2ccc(N=Nc3c(C)noc3C)cc2[nH]1 | 34.8 | > 100 | > 100 | > 100 | > 100 | –
Cc1csc(=Nc2ccccc2)n1CCC(O)(P(=O)(O)O)P(=O)(O)O | – | > 100 | > 100 | > 100 | > 100 | –
O=C1C(Cl)=CC2(C=C1Cl)CCN=c1c(O)c3c(c(O)c12)=NC=N3 | > 100 | > 100 | > 100 | 51.8 | > 100 | –
CC(C)=CCC[C@@H](C)C1=C(N)C(O)=C(C)C(=O)C1=O | > 75 | > 75 | > 75 | 50.9 | > 75 | –
Cc1cc2nnn(C3CCCCO3)c2cc1C (stereo not drawn) | – | > 100 | > 100 | > 100 | – | –
CN(CC(=O)Nc1ccccc1C(=O)O)c1ccccc1 | > 100 | > 100 | > 100 | > 100 | > 100 | –
CCCCCCC1OC23OC1CCC2C(O)CCC3O (stereo not drawn) | > 100 | – | > 100 | > 100 | > 100 | –
CC(C)C(=O)Cc1ccc2ccccc2n1 | > 100 | > 100 | > 100 | > 100 | > 100 | –
CS(=O)(=O)CCC1CCC(=O)O1 (stereo not drawn) | > 100 | > 100 | > 100 | > 100 | > 100 | –
COc1cc2c(cc1OCCCOc1cc3c(cc1OC)C(=O)N1CCC[C@H]1C(=O)N3)N=C[C@@H]1CCCN1C2=O | 37.9 | 55.4 | 35.5 | 6.34 | > 100 | –
COC(=O)C1=C(OC)C(=P2(c3ccccc3)CC(c3ccccc3)=C2c2ccccc2)C(C(=O)OC)=C1C(=O)OC (stereo not drawn) | – | > 100 | > 100 | 13.6 | > 100 | –
Clc1ccc(C(OCn2ccnc2)c2nc3ccccc3[nH]2)c(Cl)c1 (stereo not drawn) | > 100 | > 100 | – | > 100 | > 100 | –
O=C(NC1CCCCC1)c1n[nH]nc1Cl | > 100 | > 100 | – | – | > 100 | –
